In ChEMBL document CHEMBL5726231, “Btk inhibitors” (2017):

Target: Tyrosine-protein kinase BTK (Homo sapiens, UniProt Q06187)
Experiment: To each well of a black non-binding surface Corning 384-well microplate (Corning Catalog #3820), 5 nL of compound (2000 fold dilution in final assay volume of 10 μL) was dispensed, followed by the addition of 7.5 μL of 1× kinase buffer (50 mM Hepes 7.5, 10 mM MgCl2, 0.01% Brij-35, 1 mM EGTA, 0.05% BSA & 1 mM DTT) containing 5.09 pg/μL (66.67 pM) of BTK enzyme (recombinant protein from baculovirus-transfected Sf9 cells: full-length BTK, 6HIS-tag cleaved). Following a 60 minute compound & enzyme incubation, each reaction was initiated by the addition of 2.5 μL 1× kinase buffer containing 8 μM biotinylated A5 peptide (Biotin-EQEDEPEGDYFEWLE-NH2), and 100 μM ATP. The final reaction in each well of 10 μL consists of 50 pM hBTK, 2 μM biotin-A5-peptide, and 25 μM ATP. Phosphorylation reactions were allowed to proceed for 120 minutes. Reactions were immediately quenched by the addition of 20 uL of 1× quench buffer (15 mM EDTA, 25 mM Hepes 7.3, and 0.1% Triton X-100) containing detection reagents (0.626 nM of LANCE-Eu-W1024-anti-phosphoTyrosine antibody, PerkinElmer and 86.8 nM of Streptavidin-conjugated Dylight 650, Dyomics/ThermoFisher Scientific). After 60 minutes incubation with detection reagents, reaction plates were read on a PerkinElmer EnVision plate reader using standard TR-FRET protocol. Briefly, excitation of donor molecules (Eu-chelate:anti-phospho-antibody) with a laser light source at 337 nm produces energy that can be transferred to Dylight-650 acceptor molecules if this donor:acceptor pair is within close proximity. Fluorescence intensity at both 665 nm (acceptor) and 615 nm (donor) are measured and a TR-FRET ratio calculated for each well (acceptor intensity/donor intensity).

Tyrosine-protein kinase BTK, sequence (Q06187 whole entry): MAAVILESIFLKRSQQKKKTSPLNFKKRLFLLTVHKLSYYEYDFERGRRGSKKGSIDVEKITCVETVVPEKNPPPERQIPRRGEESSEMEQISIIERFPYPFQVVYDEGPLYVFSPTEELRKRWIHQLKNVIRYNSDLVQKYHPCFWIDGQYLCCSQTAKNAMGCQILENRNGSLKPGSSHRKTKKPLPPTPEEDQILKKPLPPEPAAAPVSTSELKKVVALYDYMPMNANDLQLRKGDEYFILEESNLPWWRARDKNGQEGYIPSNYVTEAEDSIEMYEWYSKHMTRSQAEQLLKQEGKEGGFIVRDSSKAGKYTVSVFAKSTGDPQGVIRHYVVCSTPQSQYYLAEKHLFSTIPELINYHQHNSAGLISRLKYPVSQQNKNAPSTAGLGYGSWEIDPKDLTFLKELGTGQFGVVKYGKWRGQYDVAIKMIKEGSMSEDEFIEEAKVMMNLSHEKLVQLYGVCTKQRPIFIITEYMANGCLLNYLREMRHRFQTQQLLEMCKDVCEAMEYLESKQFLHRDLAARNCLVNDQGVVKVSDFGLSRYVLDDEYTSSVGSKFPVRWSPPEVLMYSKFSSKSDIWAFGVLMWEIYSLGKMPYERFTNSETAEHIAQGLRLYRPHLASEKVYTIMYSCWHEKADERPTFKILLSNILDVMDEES

Compound	IC50 [nM]
Cc1noc(C)c1C(=O)N1CCC[C@@H](c2nn(-c3ccc(Oc4ccccc4)cc3)c3c(N)nccc23)C1	13.7
N#CC1(C(=O)N2CCC[C@@H](c3nn(-c4ccc(Oc5ccccc5)cc4)c4c(N)nccc34)C2)CC1	11.8
CO[C@@H](C)C(=O)N1CCC[C@@H](c2nn(-c3ccc(Oc4ccccc4)cc3)c3c(N)nccc23)C1	3.9
Nc1nccc2c([C@@H]3CCCN(C(=O)C4CC(F)(F)C4)C3)nn(-c3ccc(Oc4ccccc4)cc3)c12	8.9
CC(C)C(=O)N1CCC[C@@H](c2nn(-c3ccc(Oc4ccccc4)cc3)c3c(N)nccc23)C1	3.7
Cc1ncn(C)c1C(=O)N1CCC[C@@H](c2nn(-c3ccc(Oc4ccccc4)cc3)c3c(N)nccc23)C1	9.2
Nc1nccc2c([C@@H]3CCCNC3)nn(-c3ccc(Oc4ccccc4)cc3)c12	30.8
Nc1nccc2c([C@@H]3CCCN(C(=O)C4CCC4)C3)nn(-c3ccc(Oc4ccccc4)cc3)c12	3.5
CO[C@H](C)C(=O)N1CCC[C@@H](c2nn(-c3ccc(Oc4ccccc4)cc3)c3c(N)nccc23)C1	5.5

The next lines start with the values.

IC50 [nM]	Compound
1	CC#CC(=O)N1CCC[C@@H](c2nn(-c3ccc(Oc4ccccc4)cc3)c3c(N)nccc23)C1
3	Nc1nccc2c([C@@H]3CCCN(C(=O)C4(O)CC4)C3)nn(-c3ccc(Oc4ccccc4)cc3)c12
2	CC(=O)N1CCC[C@@H](c2nn(-c3ccc(Oc4ccccc4)cc3)c3c(N)nccc23)C1
1.8	COCCC(=O)N1CCC[C@@H](c2nn(-c3ccc(Oc4ccccc4)cc3)c3c(N)nccc23)C1
3.5	CCOCC(=O)N1CCC[C@@H](c2nn(-c3ccc(Oc4ccccc4)cc3)c3c(N)nccc23)C1
3.5	COCCOCC(=O)N1CCC[C@@H](c2nn(-c3ccc(Oc4ccccc4)cc3)c3c(N)nccc23)C1
2	CCC(=O)N1CCC[C@@H](c2nn(-c3ccc(Oc4ccccc4)cc3)c3c(N)nccc23)C1
0.66	C=CC(=O)N1CCC[C@@H](c2nn(-c3ccc(Oc4ccccc4)cc3)c3c(N)nccc23)C1
3.3	Nc1nccc2c([C@@H]3CCCN(C(=O)C4CC4)C3)nn(-c3ccc(Oc4ccccc4)cc3)c12
2.7	COCC(=O)N1CCC[C@@H](c2nn(-c3ccc(Oc4ccccc4)cc3)c3c(N)nccc23)C1
3.3	CC1(C(=O)N2CCC[C@@H](c3nn(-c4ccc(Oc5ccccc5)cc4)c4c(N)nccc34)C2)CC1
1	C[C@@H](O)C(=O)N1CCC[C@@H](c2nn(-c3ccc(Oc4ccccc4)cc3)c3c(N)nccc23)C1
2.7	Cn1cncc1C(=O)N1CCC[C@@H](c2nn(-c3ccc(Oc4ccccc4)cc3)c3c(N)nccc23)C1
2.3	C[C@H](O)C(=O)N1CCC[C@@H](c2nn(-c3ccc(Oc4ccccc4)cc3)c3c(N)nccc23)C1
